Data from US20250230193A1, “CYCLIC COMPOUND HAVING SELECTIVE KRAS INHIBITORY EFFECT ON HRAS AND NRAS” (CHUGAI SEIYAKU KABUSHIKI KAISHA, priority 2022, published 2025).

Assays:
[1] = target: GDP-bound HRAS wild-type protein (Homo sapiens, UniProt P01112); assay: Binding to HRAS by surface plasmon resonance (SPR), Single Cycle Kinetics; details: KD ratio, GDP-bound HRAS wild-type vs GDP-bound KRAS wild-type, SPR
[2] = target: GDP-bound NRAS wild-type protein (Homo sapiens, UniProt P01111); assay: Binding to NRAS by surface plasmon resonance (SPR), Single Cycle Kinetics; details: KD ratio, GDP-bound NRAS wild-type vs GDP-bound KRAS wild-type, SPR
Sequence of GDP-bound NRAS wild-type protein (P01111 whole entry): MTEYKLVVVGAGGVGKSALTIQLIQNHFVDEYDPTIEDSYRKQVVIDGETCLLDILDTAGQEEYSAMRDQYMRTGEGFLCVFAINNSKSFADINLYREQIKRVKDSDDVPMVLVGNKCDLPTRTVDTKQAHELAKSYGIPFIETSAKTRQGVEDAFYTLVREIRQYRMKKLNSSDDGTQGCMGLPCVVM

Sequence of GDP-bound HRAS wild-type protein (P01112 whole entry): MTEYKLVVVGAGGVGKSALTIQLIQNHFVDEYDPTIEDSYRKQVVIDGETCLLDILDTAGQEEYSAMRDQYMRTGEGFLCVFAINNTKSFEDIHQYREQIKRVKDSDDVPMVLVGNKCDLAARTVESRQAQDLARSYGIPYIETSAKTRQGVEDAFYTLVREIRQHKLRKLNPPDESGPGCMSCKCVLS

| SMILES | HRAS/KRAS (ratio of KD value with respect to HRAS to KD value with respect to KRAS) [1] | NRAS/KRAS (ratio of KD value with respect to NRAS to KD value with respect to KRAS) [2] |
| --- | --- | --- |
| CCO[C@@H]1C[C@H]2C(=O)NC3(CCC3)C(=O)N(C)[C@@H](C3CCCC3)C(=O)N(C)[C@H](C(=O)N(C)C)CC(=O)N(C)[C@@H](CC)C(=O)N[C@@H]([C@@H](C)CC)C(=O)N3CC[C@H]3C(=O)N(C)[C@H]3CC(C)=C(C)CN(C3=O)[C@@H](Cc3ccc(C(F)(F)F)cc3)C(=O)N(C)CC(=O)N[C@@H](CCc3cc(F)c(C(F)(F)F)c(F)c3)C(=O)N2C1 [PP1049] | C (A compound having a KD ratio of 0.1 or more and less than 3 is denoted as C) | C (A compound having a KD ratio of 0.1 or more and less than 3 is denoted as C) |
| CCO[C@@H]1C[C@H]2C(=O)NC3(CCCC3)C(=O)N(C)[C@@H](C3CCCC3)C(=O)N(C)[C@H](C(=O)N(C)C)CC(=O)N(C)[C@@H](CC)C(=O)N[C@@H]([C@@H](C)CC)C(=O)N(C)CC(=O)N(C)[C@H]3CC(C)=C(C)CN(C3=O)[C@@H](Cc3ccc(C(F)(F)F)cc3)C(=O)N(C)CC(=O)N[C@@H](CCc3cc(F)c(C(F)(F)F)c(F)c3)C(=O)N2C1 [PP1050] | C (A compound having a KD ratio of 0.1 or more and less than 3 is denoted as C) | C (A compound having a KD ratio of 0.1 or more and less than 3 is denoted as C) |
| CCO[C@@H]1C[C@H]2C(=O)NC3(CCC3)C(=O)N(C)[C@@H](C3CCCC3)C(=O)N(C)[C@H](C(=O)N(C)C)CC(=O)N(CC)[C@@H](CC(C)C)C(=O)N[C@@H]([C@@H](C)CC)C(=O)N(C)CC(=O)N(C)[C@H]3CC(C)=C(C)CN(C3=O)[C@@H](Cc3ccc(C(F)(F)F)cc3)C(=O)N(C)CC(=O)N[C@@H](CCc3cc(F)c(C(F)(F)F)c(F)c3)C(=O)N2C1 [PP1051] | C (A compound having a KD ratio of 0.1 or more and less than 3 is denoted as C) | C (A compound having a KD ratio of 0.1 or more and less than 3 is denoted as C) |
| CCO[C@@H]1C[C@H]2C(=O)NC3(CCC3)C(=O)N(C)[C@@H](C3CCCC3)C(=O)N(C)[C@H](C(=O)N(C)C)CC(=O)N(C)[C@@H](CC)C(=O)N[C@@H]([C@@H](C)CC)C(=O)N(CC)CC(=O)N(C)[C@H]3C/C=C\CCN(C3=O)[C@@H](Cc3ccc(C(F)(F)F)cc3)C(=O)N(C)CC(=O)N[C@@H](CCc3cc(F)c(C(F)(F)F)c(F)c3)C(=O)N2C1 [PP1052] | A (a compound having 10 or more and less than 20 is denoted as A) | A (a compound having 10 or more and less than 20 is denoted as A) |
| CCCN1CC(=O)N(C)[C@H]2C/C=C\CCN(C2=O)[C@@H](Cc2ccc(C(F)(F)F)cc2)C(=O)N(C)CC(=O)N[C@@H](CCc2cc(F)c(C(F)(F)F)c(F)c2)C(=O)N2C[C@H](OCC)C[C@H]2C(=O)NC2(CCC2)C(=O)N(C)[C@@H](C2CCCC2)C(=O)N(C)[C@H](C(=O)N(C)C)CC(=O)N(C)[C@@H](CC)C(=O)N[C@@H]([C@@H](C)CC)C1=O [PP1053] | A (a compound having 10 or more and less than 20 is denoted as A) | A (a compound having 10 or more and less than 20 is denoted as A) |
| CCO[C@@H]1C[C@H]2C(=O)NC3(CCC3)C(=O)N(C)[C@@H](C3CCCC3)C(=O)N(C)[C@H](C(=O)N(C)C)CC(=O)N(C)[C@@H](CC)C(=O)N[C@@H]([C@@H](C)CC)C(=O)N(C)[C@@H](C)C(=O)N(C)[C@H]3C/C=C\CCN(C3=O)[C@@H](Cc3ccc(C(F)(F)F)cc3)C(=O)N(C)CC(=O)N[C@@H](CCc3cc(F)c(C(F)(F)F)c(F)c3)C(=O)N2C1 [PP1054] | B (a compound having 3 or more and less than 10 is denoted as B) | A (a compound having 10 or more and less than 20 is denoted as A) |
| CCO[C@@H]1C[C@H]2C(=O)NC3(CCC3)C(=O)N(C)[C@@H](C3CCCC3)C(=O)N(C)[C@H](C(=O)N(C)C)CC(=O)N(C)[C@@H](CC)C(=O)N[C@@H]([C@@H](C)CC)C(=O)N3CCC[C@H]3C(=O)N(C)[C@H]3C/C=C\CCN(C3=O)[C@@H](Cc3ccc(C(F)(F)F)cc3)C(=O)N(C)CC(=O)N[C@@H](CCc3cc(F)c(C(F)(F)F)c(F)c3)C(=O)N2C1 [PP1056] | A (a compound having 10 or more and less than 20 is denoted as A) | A (a compound having 10 or more and less than 20 is denoted as A) |
| CCO[C@@H]1C[C@H]2C(=O)NC3(CCC3)C(=O)N(C)[C@@H](C3CCCC3)C(=O)N(C)[C@H](C(=O)N(C)C)CC(=O)N(C)[C@@H](CC)C(=O)N[C@@H]([C@@H](C)CC)C(=O)N3C[C@H](OCC)C[C@H]3C(=O)N(C)[C@H]3C/C=C\CCN(C3=O)[C@@H](Cc3ccc(C(F)(F)F)cc3)C(=O)N(C)CC(=O)N[C@@H](CCc3cc(F)c(C(F)(F)F)c(F)c3)C(=O)N2C1 [PP1057] | B (a compound having 3 or more and less than 10 is denoted as B) | A (a compound having 10 or more and less than 20 is denoted as A) |
| CCO[C@@H]1C[C@H]2C(=O)NC3(CCC3)C(=O)N(C)[C@@H](C3CCCC3)C(=O)N(C)[C@H](C(=O)N(C)C)CC(=O)N(C)[C@@H](CC)C(=O)N[C@@H]([C@@H](C)CC)C(=O)N3CCCC[C@H]3C(=O)N(C)[C@H]3C/C=C\CCN(C3=O)[C@@H](Cc3ccc(C(F)(F)F)cc3)C(=O)N(C)CC(=O)N[C@@H](CCc3cc(F)c(C(F)(F)F)c(F)c3)C(=O)N2C1 [PP1058] | B (a compound having 3 or more and less than 10 is denoted as B) | A (a compound having 10 or more and less than 20 is denoted as A) |
| CCO[C@@H]1C[C@H]2C(=O)NC3(CCC3)C(=O)N(C)[C@@H](C3CCCC3)C(=O)N(C)[C@H](C(=O)N(C)C)CC(=O)N(C)[C@@H](CC)C(=O)N[C@@H]([C@@H](C)CC)C(=O)N3CCSC[C@H]3C(=O)N(C)[C@H]3C/C=C\CCN(C3=O)[C@@H](Cc3ccc(C(F)(F)F)cc3)C(=O)N(C)CC(=O)N[C@@H](CCc3cc(F)c(C(F)(F)F)c(F)c3)C(=O)N2C1 [PP1060] | A (a compound having 10 or more and less than 20 is denoted as A) | A (a compound having 10 or more and less than 20 is denoted as A) |
| CCO[C@@H]1C[C@H]2C(=O)NC3(CCC3)C(=O)N(C)[C@@H](C3CCCC3)C(=O)N(C)[C@H](C(=O)N(C)C)CC(=O)N(C)[C@@H](CC)C(=O)N[C@@H]([C@@H](C)CC)C(=O)N3CC[C@@H]3C(=O)N(C)[C@H]3C/C=C\CCN(C3=O)[C@@H](Cc3ccc(C(F)(F)F)cc3)C(=O)N(C)CC(=O)N[C@@H](CCc3cc(F)c(C(F)(F)F)c(F)c3)C(=O)N2C1 [PP1064] | A (a compound having 10 or more and less than 20 is denoted as A) | A (a compound having 10 or more and less than 20 is denoted as A) |
| CCO[C@@H]1C[C@H]2C(=O)NC3(CCC3)C(=O)N(C)[C@@H](C3CCCC3)C(=O)N(C)[C@H](C(=O)N(C)C)CC(=O)N(C)[C@@H](CC)C(=O)N[C@@H]([C@@H](C)CC)C(=O)N[C@@H](C)C(=O)N(C)[C@H]3C/C=C\CCN(C3=O)[C@@H](Cc3ccc(C(F)(F)F)cc3)C(=O)N(C)CC(=O)N[C@@H](CCc3cc(F)c(C(F)(F)F)c(F)c3)C(=O)N2C1 [PP1065] | B (a compound having 3 or more and less than 10 is denoted as B) | A (a compound having 10 or more and less than 20 is denoted as A) |
| CC[C@H](C)[C@@H]1NC(=O)[C@H](CC(C)C)N(C)C(=O)C[C@@H](C(=O)N2CCOCC2)N(C)C(=O)[C@H](C2CCCC2)N(C)C(=O)C2(CCC2)NC(=O)[C@@H]2[C@@H](OC)CCN2C(=O)[C@H](CCc2cc(F)c(C(F)(F)F)c(F)c2)NC(=O)CN(C)C(=O)[C@H](Cc2ccc(C(F)(F)F)cc2)N2CCCCC[C@@H](C2=O)N(C)C(=O)CN(C)C1=O [PP1067] | B (a compound having 3 or more and less than 10 is denoted as B) | B (a compound having 3 or more and less than 10 is denoted as B) |
| CCO[C@H]1CCN2C(=O)[C@H](CCc3cc(F)c(C(F)(F)F)c(F)c3)NC(=O)CN(C)C(=O)[C@H](Cc3ccc(C(F)(F)F)cc3)N3CCCCC[C@@H](C3=O)N(C)C(=O)CN(C)C(=O)[C@H]([C@@H](C)CC)NC(=O)[C@H](CC(C)C)N(C)C(=O)C[C@@H](C(=O)N3CCOCC3)N(C)C(=O)[C@H](C3CCCC3)N(C)C(=O)C3(CCC3)NC(=O)[C@H]12 [PP1068] | B (a compound having 3 or more and less than 10 is denoted as B) | A (a compound having 10 or more and less than 20 is denoted as A) |
| CCCO[C@H]1CCN2C(=O)[C@H](CCc3cc(F)c(C(F)(F)F)c(F)c3)NC(=O)CN(C)C(=O)[C@H](Cc3ccc(C(F)(F)F)cc3)N3CCCCC[C@@H](C3=O)N(C)C(=O)CN(C)C(=O)[C@H]([C@@H](C)CC)NC(=O)[C@H](CC(C)C)N(C)C(=O)C[C@@H](C(=O)N3CCOCC3)N(C)C(=O)[C@H](C3CCCC3)N(C)C(=O)C3(CCC3)NC(=O)[C@H]12 [PP1069] | B (a compound having 3 or more and less than 10 is denoted as B) | A (a compound having 10 or more and less than 20 is denoted as A) |
| CCCCO[C@H]1CCN2C(=O)[C@H](CCc3cc(F)c(C(F)(F)F)c(F)c3)NC(=O)CN(C)C(=O)[C@H](Cc3ccc(C(F)(F)F)cc3)N3CCCC[C@@H](C3=O)N(C)C(=O)CN(C)C(=O)[C@H]([C@@H](C)CC)NC(=O)[C@H](CC(C)C)N(C)C(=O)C[C@@H](C(=O)N3CCOCC3)N(C)C(=O)[C@H](C3CCCC3)N(C)C(=O)C3(CCC3)NC(=O)[C@H]12 [PP1071] | B (a compound having 3 or more and less than 10 is denoted as B) | B (a compound having 3 or more and less than 10 is denoted as B) |
